Values of other authors in patent US20240299307A1, “Extended-release compositions comprising atomoxetine” (Tulex Pharmaceuticals, Inc., priority 2021, published 2024).
Like-named read-outs stand apart in the source and are kept apart here.

- solubility (pH of about 1): about 18 mg/mL
- solubility (pH of about 4.5 (highest solubility)): about 52 mg/mL
- decrease of solubility relative to pH about 4.5 (pH of greater than about 4.5): approximately 10 fold
- decrease of solubility relative to pH about 4.5 (pH of less than 4.5): approximately 3 fold
Structure (SMILES): CNCC[C@@H](Oc1ccccc1C)c1ccccc1 [ATO]
